Key:
[1] = Method: Fujifilm Wako Pure Chemical
The poorly soluble compound content in the recovered filtrate was measured by liquid chromatography specified below (Shimadzu (Kyoto), high performance liquid chromatograph Prominence).
As the standard product of triamcinolone acetonide, a reagent from the Pharmaceutical and Medical Device Regulatory Science Society of Japan (Japan) was used. • 50 μL of sample solution and standard solution was measured by liquid chromatography under the following conditions.
Column temperature: constant temperature of about 40° C. Mobile phase A: 0.1% trifluoroacetic acid/10% acetonitrile solution Mobile phase B: 0.1% trifluoroacetic acid/90% acetonitrile solution Delivery of mobile phase: the ratio of mixture of mobile phase A and mobile phase B was changed as follows to control the linear concentration gradient.
Detergent: 50% acetonitrile solution Flow rate: 1.0 mL/min Temperature within autosampler: 5° C.
The following conditions were tested as additives to a poorly soluble compound
wherein SA+B=solubility of a poorly soluble compound in a composition comprising poloxamer 407 and PEG 4000 SB=solubility of a poorly soluble compound in a composition comprising PEG 4000, but not poloxamer 407 SA=solubility of a poorly soluble compound in a composition comprising poloxamer 407, but not PEG 4000 S0=solubility of a poorly soluble compound in a composition that comprises neither poloxamer 407 nor PEG 4000.
The solubility in a composition of PEG and poloxamer was measured in the same manner described above for additional compounds.
For cabozantinib and telmisartan, the pH of the aqueous solution with the base composition described above was changed to 7.4. For rebamipide, the aqueous solution with the base composition was as follow. • 0.05% sodium hydrogen phosphate hydrate • 0.45% sodium dihydrogen phosphate hydrate • sodium hydroxide and hydrochloric acid (suitable amount was added to adjust the pH to 6.0)
Additional compounds were measured in the same manner described above.
Cabozantinib and telmisartan were tested with a solution adjusted to a pH of 7.4. Rebamipide was tested with a solution adjusted to a pH of 6.0. Other compounds were tested with a solution adjusted to a pH of 7.0.

[2] = Basic solubility at 25° C. in ethanol, PEG 400, propylene glycol (PG) and buffer solution; solubility ratio non-aqueous solvent / buffer solution; conditions: 25° C.; for Solubility ratio of solvent with respect to buffer solution Ethanol/buffer solution / Solubility ratio of solvent with respect to buffer solution PEG400/buffer solution / Solubility ratio of solvent with respect to buffer solution PG/buffer solution: buffer pH 7.0 (pH 7.4 for cabozantinib and telmisartan; pH 6.0 for rebamipide)
Method: In this regard, the buffer solution had the following composition: • 0.2% sodium hydrogen phosphate hydrate • 0.3% sodium dihydrogen phosphate hydrate • sodium hydroxide and hydrochloric acid (suitable amount was added to adjust the pH to 7.0; however, pH was adjusted to 7.4 for cabozantinib and telmisartan).
However, the following composition was used for rebamipide instead: • 0.05% sodium hydrogen phosphate hydrate • 0.45% sodium dihydrogen phosphate hydrate • sodium hydroxide and hydrochloric acid (suitable amount was added to adjust the pH to 6.0).
Each compound was measured in the same manner described above. In the Table, the molecular weight and Log P values are reference values (or values calculated from reference values).

[3] = reference values; pH upon measurement: rebamipide pH 7.0, telmisartan pH 7.4, cilostazol pH 7.0, aprepitant pH 7, cabozantinib pH 7.4; cited from earlier work
[4] = format: physicochemical
Method: The solubility of a poorly soluble compound was measured by further adding a water-soluble macromolecule.
DKS Co. Ltd. • SBE-β-CD . . . MedChemExpress LLC • HP-β-CD . . . Fujifilm Wako Pure Chemical

| Compound | Solubility scale factor at 5° C. 30% PEG 4000/10% poloxamer 407 [1] | Solubility scale factor at 15° C. 30% PEG 4000/10% poloxamer 407 [1] | Solubility ratio of solvent with respect to buffer solution Ethanol/buffer solution [2] | Solubility ratio of solvent with respect to buffer solution PEG400/buffer solution [2] | Solubility ratio of solvent with respect to buffer solution PG/buffer solution [2] | Log P [3] | effect of the addition on solubility of celecoxib in PEG/poloxamer composition [4] | also measured |
| --- | --- | --- | --- | --- | --- | --- | --- | --- |
| O=C1CCc2cc(OCCCCc3nnnn3C3CCCCC3)ccc2N1 [Cilostazol] | 8.97 | 10.22 | 761.36 | 1146.93 | 761.23 | 2.76 |  | Solubility, PEG400 [2]: 0.4342% |
| O=C1Nc2ccc(Cl)cc2[C@@](C#CC2CC2)(C(F)(F)F)O1 [Efavirenz] |  |  |  |  |  | 5.40 |  | state of the test composition [1]: converted into gel; Solubility, PG (propylene glycol) [2]: 48.3%; Solubility, Buffer solution ([2]; phosphate buffer pH 7.0): 0.0007278% |
| CC1(C)O[C@@H]2C[C@H]3[C@@H]4C[C@H](F)C5=CC(=O)C=C[C@]5(C)[C@@]4(F)[C@@H](O)C[C@]3(C)[C@]2(C(=O)CO)O1 [Fluocinolone acetonide] | 19.75 | 18.27 | 2685.78 | 1803.78 | 2007.24 | 2.48 |  | Solubility, Ethanol [2]: 4.635%; Solubility, PG (propylene glycol) [2]: 3.224% |
| O=C(NC(Cc1cc(=O)[nH]c2ccccc12)C(=O)O)c1ccc(Cl)cc1 (stereo not drawn) [Rebamipide] | 1.13 | 1.07 | 2.67 | 5.41 | 4.88 | −0.22 |  | solubilization of compound due to poloxamer 407 by an addition of PEG 4000 [1]: lowest; Solubility, Ethanol [2]: 0.06615%; Solubility, Buffer solution ([2]; phosphate buffer adjusted to pH 6.0 (rebamipide)): 0.02473% |
| CCCc1nc2c(C)cc(-c3nc4ccccc4n3C)cc2n1Cc1ccc(-c2ccccc2C(=O)O)cc1 [Telmisartan] | 2.03 | 1.71 | 287.77 | 431.18 | 120.32 | 3.2 |  |  |
| carboxymethyl cellulose [CMC] |  |  |  |  |  |  | improved solubility overall | effect on dissolution of a poorly soluble compound due to poloxamer 407 and PEG 4000 [4]: tendency to further assist dissolution |
| hydroxypropyl-β-cyclodextrin [HP-β-CD] |  |  |  |  |  |  | hardly improved the solubility |  |
| sulfobutylether-β-cyclodextrin [SBE-β-CD] |  |  |  |  |  |  | improved solubility overall | effect on dissolution of a poorly soluble compound due to poloxamer 407 and PEG 4000 [4]: further improved the dissolution |

From patent US20230102590A1, “USE OF POLYETHER COMPOUND” (Senju Pharmaceutical Co., Ltd., priority 2020, published 2023)
